Columns and labels:
CD-1 mice [1] = assay: Urinary renal toxicity marker (urinary NGAL/creatinine ratio by ELISA); format: in vivo; conditions: urine 16 weeks after administration of ^225Ac-labeled antibody (15 kBq/mouse), n=4 to 5
Procedure: Whether combined administration of a ^225Ac-labeled anti-MUC5AC humanized antibody prepared using ^225Ac-labeled DOTAGA-DBCO and a compound expected to have a renal protective effect (renal protective agent) reduces delayed renal toxicity caused by radiation emitted from ^225Ac or ^225Ac daughter nuclide was evaluated. […]
During the observation period, body weight measurement, blood cell measurement, and renal toxicity marker measurement were performed over time and signs of toxicity were evaluated.
Urine was collected from each individual 16 weeks after the administration of the ^225Ac-labeled anti-MUC5AC humanized antibody, and neutrophil gelatinase-associated lipocalin (NGAL), and creatinine concentration of the urine samples were measured by ELISA. […] The NGAL value corrected for urine concentration was calculated by dividing the obtained NGAL value by the creatinine value (urinary NGAL/creatinine ratio, hereinafter referred to as urinary N/C ratio). The calculated urinary N/C ratio was confirmed using Stat PreClinica (manufactured by Takumi Information Technology Co., Ltd.) for the homoscedasticity of the measured values. […]

CD-1 mice [2] = assay: Autopsy and measurement of kidney weight; format: in vivo, mouse; conditions: at autopsy, 184 days from administration
Procedure: The ^225Ac-labeled anti-MUC5AC humanized antibody produced in Production Example 3 was administered to CD-1 mice (5 weeks old, male, manufactured by Charles River Japan), each group n=5 at a dose of 15 kBq/mouse and, as a renal protective agent, any of Zn-DTPA, furosemide, spironolactone, and eplerenone was administered in combination at the dosage, administration method, administration frequency, and initial administration timing shown in Table 1. That is, a group to which only ^225Ac-labeled anti-MUC5AC humanized antibody was administered (Comparative Example 1), a group to which ^225Ac-labeled anti-MUC5AC humanized antibody and each renal protective agent administered in combination (Example 1 to Example 7), and a group to which only a renal protective agent is administered without administration of ^225Ac-labeled anti-MUC5AC humanized antibody (Comparative Examples 2 to 5) were established. The dose of the ^225Ac-labeled anti-MUC5AC humanized antibody, each renal protective agent, and feeding conditions are shown in Table 1. The sustained release tablets used for the transdermal administration group of each renal protective agent were those manufactured by Innovative Research of America, and the mixed feed containing 0.004% of each renal protective agent used was manufactured by Oriental Yeast Co., Ltd.
On the final day of the observation period (184 days from the day of administration of the ^225Ac-labeled anti-MUC5AC humanized antibody), euthanasia and autopsy were performed by exsanguination under isoflurane anesthesia. After autopsy, the kidneys were collected and weighed. The obtained organ weight measurement results (excluding Example 7) were confirmed for the homoscedasticity of the measured values. Since homoscedasticity was confirmed for all items, a significant difference test was performed using the Tukey method, which is a parametric test. The significance level was set to 5%.

O=C([O-])CN(CCN(CC(=O)[O-])CC(=O)[O-])CCN(CC(=O)[O-])CC(=O)[O-].[Na+].[Na+].[Na+].[Zn+2] [Comparative Example 2, Zn-DTPA] was tested, and the “N/C ratio (urinary NGAL/creatinine ratio)” value (CD-1 mice [1]) was 1.1 ± 0.60, the body weight (CD-1 mice [2]) was 44.48 ± 4.5 g and the kidney weight (CD-1 mice [2]) was 0.75 ± 0.12 g. For the same molecule, the “kidney weight/body weight ratio” value (CD-1 mice [2]) was 0.017 ± 0.001.

Source: patent US20240207461A1, “RADIOACTIVE ANTITUMOR AGENT” (NIHON MEDI-PHYSICS CO., LTD., priority 2021, published 2024)
